Measurements taken from PubChem BioAssay AID194 (DTP/NCI, 2004).
Where “and” joins values, the source holds several entries; their conditions need not be identical. Equal entries are not always repeated. Results filed as inconclusive are left out.

System: BDF1 mice, B16 melanoma s.c., survival/tumor T/C
Experiment: NCI In Vivo Anticancer Drug Screen. Data for tumor model B16 Melanoma (subcutaneous) in B6D2F1 (BDF1) mice
Conditions: endpoint: median survival time, higher = longer survival
Procedure: The antitumor activity of compounds was measured in mice bearing transplantable tumors. Survival or tumor size were measured and the results are expressed as the measurement made in the treated group (T) divided by the measurement made in the vehicle treated control group (C). The tumor model used in this assay is B16 Melanoma (subcutaneous) in B6D2F1 (BDF1) mice

[1] = dose: 3.11 mg/kg/injection, schedule: Q01DX007 (ip), vehicle: water
[2] = dose: 5.18 mg/kg/injection, schedule: Q01DX007 (ip), vehicle: water
[3] = dose: 8.64 mg/kg/injection, schedule: Q01DX007 (ip), vehicle: water

`O=NN(CCF)C(=O)NC1C(O)CCCC1O` (stereo not drawn) was tested, and the T/C [1] was 98 % of control, the T/C [2] was 103 % of control and the T/C [3] was 112 % of control. The T/C (dose: 14.4 mg/kg/injection, schedule: Q01DX007 (ip), vehicle: water) was 123 % of control.

For `NC(=O)c1[nH]nc(C2OC(CO)C(O)C2O)c1O` (stereo not drawn), the T/C (dose: 0.12 mg/kg/injection, schedule: Q01DX009 (ip), vehicle: saline) was 108 % of control, the T/C (dose: 0.25 mg/kg/injection, schedule: Q01DX009 (ip), vehicle: saline) was 109 % of control and the T/C (dose: 0.5 mg/kg/injection, schedule: Q01DX009 (ip), vehicle: saline) was 106 % of control. For the same compound, the T/C (dose: 0.67 mg/kg/injection, schedule: Q01DX009 (ip), vehicle: saline) was 102 % of control and the T/C (dose: 1.25 mg/kg/injection, schedule: Q01DX009 (ip), vehicle: saline) was 87 % of control.

With `CC1(C)N=C(N)N=C(N)N1c1ccc(CNC(=O)Nc2cccc(S(=O)(=O)F)c2)cc1` the T/C (dose: 100.0 mg/kg/injection, schedule: Q04DX003 (ip), vehicle: saline) was 100 % of control and the T/C (dose: 225.0 mg/kg/injection, schedule: Q04DX003 (ip), vehicle: saline) was 122 % of control.

In the case of `O=C(O)CCCCC1CCSS1` (stereo not drawn), the T/C (dose: 7.81 mg/kg/injection, schedule: Q01DX009 (ip), vehicle: Klucel (hydroxypropylcellulose) (HPC)) is reported as 116 % of control and 117 % of control, the T/C (dose: 15.62 mg/kg/injection, schedule: Q01DX009 (ip), vehicle: Klucel (hydroxypropylcellulose) (HPC)) is reported as 112 % of control and 116 % of control and the T/C (dose: 125.0 mg/kg/injection, schedule: Q01DX009 (ip), vehicle: Klucel (hydroxypropylcellulose) (HPC)) is reported as 99 % of control and 100 % of control.

`CC(C)CCC[C@@H](C)[C@H]1CC[C@H]2[C@@H]3CC=C4C[C@@H](O)CC[C@]4(C)[C@H]3CC[C@]12C` was tested, and the T/C (dose: 12.5 mg/kg/injection, schedule: Q01DX009 (ip), vehicle: other) was 120 % of control, the T/C (dose: 25.0 mg/kg/injection, schedule: Q01DX009 (ip), vehicle: other) was 96 % of control and the T/C (dose: 50.0 mg/kg/injection, schedule: Q01DX009 (ip), vehicle: other) was 119 % of control.

In the case of `CN1c2c(nc(N)[nH]c2=O)NCC1CCNc1ccc(C(=O)NC(CCC(=O)O)C(=O)O)cc1` (stereo not drawn), the T/C (dose: 600.0 mg/kg/injection, schedule: Q04DX003 (ip), vehicle: saline) is reported as 118 % of control and 123 % of control, the T/C (dose: 800.0 mg/kg/injection, schedule: Q01DX001 (ip), vehicle: saline) is reported as 108 % of control and the T/C (dose: 800.0 mg/kg/injection, schedule: Q04DX003 (ip), vehicle: saline) is reported as 113 % of control. For the same compound, the T/C (dose: 900.0 mg/kg/injection, schedule: Q04DX003 (ip), vehicle: saline) was 159 % of control, the T/C (dose: 1200.0 mg/kg/injection, schedule: Q01DX001 (ip), vehicle: saline) was 119 % of control and 121 % of control and the T/C (dose: 1800.0 mg/kg/injection, schedule: Q01DX001 (ip), vehicle: saline) was 121 % of control. For the same compound, the T/C (dose: 2400.0 mg/kg/injection, schedule: Q01DX001 (ip), vehicle: saline) was 121 % of control.

`O=NN(CCF)C(=O)NCCO` was tested, and the T/C [1] was 98 % of control, the T/C [2] was 112 % of control and the T/C [3] was 123 % of control.

For `COC(=O)[C@@H]1c2cc3c(c(O)c2[C@@H](OC2OC(C)C(OC)C(C)(OC)C2OC)C[C@]1(C)O)C(=O)c1c(O)cc2c(c1C3=O)O[C@H]1O[C@]2(C)[C@H](O)[C@@H](N(C)C)[C@@H]1O` (stereo partly drawn), the T/C (dose: 0.5 mg/kg/injection, schedule: Q01DX009 (ip), vehicle: other) was 90 % of control, the T/C (dose: 125.0 micrograms/kg/injection, schedule: Q01DX009 (ip), vehicle: saline + alcohol) was 118 % of control and the T/C (dose: 500.0 micrograms/kg/injection, schedule: Q01DX009 (ip), vehicle: saline + alcohol) was 118 % of control. For the same compound, the T/C (dose: 1000.0 micrograms/kg/injection, schedule: Q01DX009 (ip), vehicle: saline + alcohol) was 109 % of control.

For `OC(CCl)CN1CC[N+]2(CC1)CC[N+]1(CCN(CC(O)CCl)CC1)CC2` (stereo not drawn), the T/C (dose: 134.0 mg/kg/injection, schedule: Q01DX007 (ip), vehicle: saline) was 162 % of control, the T/C (dose: 200.0 mg/kg/injection, schedule: Q01DX009 (ip), vehicle: saline) was 112 % of control and the T/C (dose: 300.0 mg/kg/injection, schedule: Q01DX007 (ip), vehicle: saline) was 173 % of control. The T/C (dose: 300.0 mg/kg/injection, schedule: Q01DX009 (ip), vehicle: saline) was 161 % of control, the T/C (dose: 670.0 mg/kg/injection, schedule: Q01DX001 (ip), vehicle: saline) was 108 % of control and the T/C (dose: 1000.0 mg/kg/injection, schedule: Q01DX001 (ip), vehicle: saline) was 92 % of control. The T/C (dose: 1500.0 mg/kg/injection, schedule: Q01DX001 (ip), vehicle: saline) was 120 % of control.
